Tests used:
Assay in all cases: biochemical
[1] = target: T1, panel of 374 wild-type kinases (Homo sapiens, UniProt Q8TD08); conditions: read-out: % Enzyme Activity (relative to DMSO controls), ERK7/MAPK15
T1 construct: purchased Reaction Biology Corporation
T1 sequence (Q8TD08 1-544): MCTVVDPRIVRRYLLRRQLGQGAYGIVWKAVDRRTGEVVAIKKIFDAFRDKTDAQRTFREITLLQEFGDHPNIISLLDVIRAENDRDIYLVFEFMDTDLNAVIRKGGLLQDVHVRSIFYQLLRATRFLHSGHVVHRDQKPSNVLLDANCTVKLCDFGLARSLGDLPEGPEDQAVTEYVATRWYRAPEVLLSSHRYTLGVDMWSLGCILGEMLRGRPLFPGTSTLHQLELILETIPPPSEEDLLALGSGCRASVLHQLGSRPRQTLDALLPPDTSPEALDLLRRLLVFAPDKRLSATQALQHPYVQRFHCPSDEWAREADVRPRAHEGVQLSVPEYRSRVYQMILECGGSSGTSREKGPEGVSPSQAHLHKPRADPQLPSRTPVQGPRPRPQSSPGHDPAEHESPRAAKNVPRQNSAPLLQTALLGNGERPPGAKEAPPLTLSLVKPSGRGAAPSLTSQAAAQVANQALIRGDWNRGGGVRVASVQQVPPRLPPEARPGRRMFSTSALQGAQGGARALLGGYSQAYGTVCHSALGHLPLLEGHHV

[2] = target: T2, panel of 374 wild-type kinases (Homo sapiens, UniProt Q6PHR2); conditions: read-out: % Enzyme Activity (relative to DMSO controls), kinase ULK3
T2 construct: purchased Reaction Biology Corporation
T2 sequence (Q6PHR2 1-472): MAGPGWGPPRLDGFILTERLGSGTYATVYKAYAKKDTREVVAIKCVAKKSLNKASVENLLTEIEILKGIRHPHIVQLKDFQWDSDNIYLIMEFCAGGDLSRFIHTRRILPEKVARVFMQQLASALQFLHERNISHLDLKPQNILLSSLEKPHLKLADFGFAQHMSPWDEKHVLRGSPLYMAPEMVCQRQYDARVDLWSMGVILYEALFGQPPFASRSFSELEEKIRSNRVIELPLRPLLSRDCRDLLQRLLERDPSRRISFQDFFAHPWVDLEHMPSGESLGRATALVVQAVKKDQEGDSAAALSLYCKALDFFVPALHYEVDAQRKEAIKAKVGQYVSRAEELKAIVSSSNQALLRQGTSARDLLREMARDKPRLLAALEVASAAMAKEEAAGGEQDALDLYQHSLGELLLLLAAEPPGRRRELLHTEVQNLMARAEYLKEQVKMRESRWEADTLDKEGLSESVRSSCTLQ

[3] = target: T3, panel of 374 wild-type kinases (Homo sapiens, UniProt O15146); conditions: read-out: % Enzyme Activity (relative to DMSO controls), MUSK
T3 construct: purchased Reaction Biology Corporation
T3 sequence (O15146 24-869): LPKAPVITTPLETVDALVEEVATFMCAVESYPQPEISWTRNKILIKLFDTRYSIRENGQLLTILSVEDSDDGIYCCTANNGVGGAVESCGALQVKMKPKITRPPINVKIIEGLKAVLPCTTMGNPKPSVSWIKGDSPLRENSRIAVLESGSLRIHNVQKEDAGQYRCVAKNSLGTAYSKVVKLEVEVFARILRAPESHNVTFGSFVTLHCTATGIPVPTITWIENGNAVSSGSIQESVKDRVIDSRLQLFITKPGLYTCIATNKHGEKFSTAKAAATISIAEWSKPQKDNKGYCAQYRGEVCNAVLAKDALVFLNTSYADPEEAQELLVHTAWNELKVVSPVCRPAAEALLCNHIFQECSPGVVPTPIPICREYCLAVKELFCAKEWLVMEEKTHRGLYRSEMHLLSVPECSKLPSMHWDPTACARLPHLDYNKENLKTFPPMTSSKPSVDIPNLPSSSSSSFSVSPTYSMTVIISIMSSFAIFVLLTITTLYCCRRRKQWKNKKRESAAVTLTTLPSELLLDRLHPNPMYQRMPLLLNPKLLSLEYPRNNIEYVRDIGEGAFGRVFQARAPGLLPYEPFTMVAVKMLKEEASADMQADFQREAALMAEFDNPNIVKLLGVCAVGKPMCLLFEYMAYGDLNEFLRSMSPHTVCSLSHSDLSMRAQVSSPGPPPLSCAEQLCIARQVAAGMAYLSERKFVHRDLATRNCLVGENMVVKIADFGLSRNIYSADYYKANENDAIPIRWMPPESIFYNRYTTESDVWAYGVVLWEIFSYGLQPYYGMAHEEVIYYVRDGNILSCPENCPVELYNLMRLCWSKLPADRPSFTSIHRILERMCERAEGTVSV

[4] = target: T4, panel of 374 wild-type kinases (Homo sapiens, UniProt P51451); conditions: read-out: % Enzyme Activity (relative to DMSO controls), BLK
T4 construct: purchased Reaction Biology Corporation

[5] = target: T5, panel of 374 wild-type kinases (Homo sapiens, UniProt P53671); conditions: read-out: % Enzyme Activity (relative to DMSO controls), LIMK2
T5 construct: purchased Reaction Biology Corporation

[6] = target: T6, panel of 374 wild-type kinases (Homo sapiens, UniProt Q9H4A3); conditions: read-out: % Enzyme Activity (relative to DMSO controls), kinase WNK1
T6 construct: purchased Reaction Biology Corporation
T6 sequence (Q9H4A3 whole entry): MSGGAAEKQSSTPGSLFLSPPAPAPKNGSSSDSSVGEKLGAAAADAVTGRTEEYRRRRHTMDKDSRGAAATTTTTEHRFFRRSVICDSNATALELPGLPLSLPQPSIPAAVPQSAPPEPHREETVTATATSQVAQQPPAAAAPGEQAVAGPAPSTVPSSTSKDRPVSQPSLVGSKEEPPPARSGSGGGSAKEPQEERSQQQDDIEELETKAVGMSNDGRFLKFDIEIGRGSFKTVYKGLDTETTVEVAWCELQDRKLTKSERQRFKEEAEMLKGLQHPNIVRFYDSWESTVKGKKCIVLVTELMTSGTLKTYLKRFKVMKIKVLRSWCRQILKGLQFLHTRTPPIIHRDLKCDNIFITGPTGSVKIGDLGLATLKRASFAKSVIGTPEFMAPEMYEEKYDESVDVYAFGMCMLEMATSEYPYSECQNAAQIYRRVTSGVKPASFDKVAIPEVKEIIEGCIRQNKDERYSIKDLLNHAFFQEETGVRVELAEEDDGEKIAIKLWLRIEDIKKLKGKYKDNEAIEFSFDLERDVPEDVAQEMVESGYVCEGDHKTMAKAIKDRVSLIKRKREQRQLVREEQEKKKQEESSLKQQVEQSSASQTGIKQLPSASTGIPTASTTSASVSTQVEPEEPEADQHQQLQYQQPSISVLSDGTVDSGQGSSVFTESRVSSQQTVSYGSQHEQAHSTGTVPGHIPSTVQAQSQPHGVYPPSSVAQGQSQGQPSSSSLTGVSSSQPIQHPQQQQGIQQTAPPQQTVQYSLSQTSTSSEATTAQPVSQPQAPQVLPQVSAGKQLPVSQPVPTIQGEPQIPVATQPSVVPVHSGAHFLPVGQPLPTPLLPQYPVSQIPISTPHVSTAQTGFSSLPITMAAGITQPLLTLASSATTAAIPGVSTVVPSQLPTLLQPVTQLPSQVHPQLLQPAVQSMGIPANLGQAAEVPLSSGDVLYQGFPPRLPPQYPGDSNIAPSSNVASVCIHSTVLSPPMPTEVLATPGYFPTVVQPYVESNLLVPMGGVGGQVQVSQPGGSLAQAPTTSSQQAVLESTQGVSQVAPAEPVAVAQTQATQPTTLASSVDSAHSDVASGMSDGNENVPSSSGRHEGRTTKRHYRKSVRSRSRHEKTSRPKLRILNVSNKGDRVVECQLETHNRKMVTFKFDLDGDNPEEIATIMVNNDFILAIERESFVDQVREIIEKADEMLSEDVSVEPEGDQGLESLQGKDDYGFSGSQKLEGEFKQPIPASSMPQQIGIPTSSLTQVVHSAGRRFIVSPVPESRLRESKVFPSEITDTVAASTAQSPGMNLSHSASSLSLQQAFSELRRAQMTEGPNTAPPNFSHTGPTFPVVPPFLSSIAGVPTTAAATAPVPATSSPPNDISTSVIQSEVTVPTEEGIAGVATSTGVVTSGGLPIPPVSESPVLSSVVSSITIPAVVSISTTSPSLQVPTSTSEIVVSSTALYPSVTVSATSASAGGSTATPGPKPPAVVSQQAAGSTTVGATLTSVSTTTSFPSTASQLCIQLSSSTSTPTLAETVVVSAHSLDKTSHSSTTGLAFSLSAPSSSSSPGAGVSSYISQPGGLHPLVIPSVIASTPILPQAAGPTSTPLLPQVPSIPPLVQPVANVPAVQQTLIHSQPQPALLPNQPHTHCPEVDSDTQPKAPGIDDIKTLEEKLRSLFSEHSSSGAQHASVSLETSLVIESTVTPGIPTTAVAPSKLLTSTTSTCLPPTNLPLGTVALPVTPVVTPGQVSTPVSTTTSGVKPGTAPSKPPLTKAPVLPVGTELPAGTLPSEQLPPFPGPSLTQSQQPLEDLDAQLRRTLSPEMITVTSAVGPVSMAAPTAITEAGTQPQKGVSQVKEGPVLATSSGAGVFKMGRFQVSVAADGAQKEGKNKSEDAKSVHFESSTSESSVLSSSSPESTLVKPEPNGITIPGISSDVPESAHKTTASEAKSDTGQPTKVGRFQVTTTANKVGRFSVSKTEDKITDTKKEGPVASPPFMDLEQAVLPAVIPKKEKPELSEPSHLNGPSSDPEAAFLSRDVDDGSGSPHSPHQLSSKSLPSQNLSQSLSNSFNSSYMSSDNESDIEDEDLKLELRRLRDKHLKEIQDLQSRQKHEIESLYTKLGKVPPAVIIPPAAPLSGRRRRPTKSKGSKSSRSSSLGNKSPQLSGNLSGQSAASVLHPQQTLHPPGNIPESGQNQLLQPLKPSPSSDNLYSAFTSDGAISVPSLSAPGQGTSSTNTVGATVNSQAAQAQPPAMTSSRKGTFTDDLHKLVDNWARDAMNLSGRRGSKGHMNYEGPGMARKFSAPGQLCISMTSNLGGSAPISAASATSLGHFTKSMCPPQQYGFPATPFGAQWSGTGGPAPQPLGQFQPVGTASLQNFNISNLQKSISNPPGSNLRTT

T4 sequence (P51451 whole entry): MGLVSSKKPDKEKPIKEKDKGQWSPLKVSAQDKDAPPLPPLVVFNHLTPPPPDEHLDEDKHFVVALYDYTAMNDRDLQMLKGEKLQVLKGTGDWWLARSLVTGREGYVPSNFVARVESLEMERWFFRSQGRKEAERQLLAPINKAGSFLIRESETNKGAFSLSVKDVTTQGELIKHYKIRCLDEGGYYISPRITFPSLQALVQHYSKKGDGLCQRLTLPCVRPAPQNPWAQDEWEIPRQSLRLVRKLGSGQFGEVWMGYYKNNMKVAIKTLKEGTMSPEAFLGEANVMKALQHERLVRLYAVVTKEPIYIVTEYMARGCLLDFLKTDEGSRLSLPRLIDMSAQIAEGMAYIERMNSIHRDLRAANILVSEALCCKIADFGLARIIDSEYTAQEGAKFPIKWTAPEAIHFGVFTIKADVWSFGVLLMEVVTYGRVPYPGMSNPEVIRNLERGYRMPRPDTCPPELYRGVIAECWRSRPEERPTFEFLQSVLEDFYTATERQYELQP
T5 sequence (P53671 whole entry): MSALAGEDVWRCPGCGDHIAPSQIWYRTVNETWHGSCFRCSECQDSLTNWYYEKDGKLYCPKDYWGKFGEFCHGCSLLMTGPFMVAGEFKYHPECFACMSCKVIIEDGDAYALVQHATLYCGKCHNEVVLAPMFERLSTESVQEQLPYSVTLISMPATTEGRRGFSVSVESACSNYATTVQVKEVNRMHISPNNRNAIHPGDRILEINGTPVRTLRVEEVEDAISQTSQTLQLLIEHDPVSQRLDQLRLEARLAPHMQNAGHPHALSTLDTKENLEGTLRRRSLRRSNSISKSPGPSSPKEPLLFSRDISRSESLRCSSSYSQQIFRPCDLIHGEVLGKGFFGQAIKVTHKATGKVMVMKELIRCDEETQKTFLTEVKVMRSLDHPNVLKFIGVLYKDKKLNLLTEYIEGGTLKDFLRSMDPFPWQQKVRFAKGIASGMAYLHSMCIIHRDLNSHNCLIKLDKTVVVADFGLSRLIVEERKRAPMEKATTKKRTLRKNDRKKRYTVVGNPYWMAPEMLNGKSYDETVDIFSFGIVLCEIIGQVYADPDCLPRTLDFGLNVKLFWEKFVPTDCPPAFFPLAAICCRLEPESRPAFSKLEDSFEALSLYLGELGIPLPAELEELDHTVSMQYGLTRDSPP

O=C(Nc1cnn(-c2csc(C(=O)NC3COC3)c2)c1)Nc1ccccc1Cl [Compound 17, 4-(4-(3-(2-chlorophenyl)ureido)-1H-pyrazol-1-yl)-N-(oxetan-3-yl)thiophene-2-carboxamide]
remaining activity at 5 µM [1]: 140% | remaining activity at 5 µM [2]: 111% | remaining activity at 5 µM [3]: 94.5% | remaining activity at 5 µM [4]: 79.2% | remaining activity at 5 µM [5]: 96.8% | remaining activity at 5 µM [6]: 99.7%

O=C(Nc1cnn(-c2csc(C(=O)NC3COC3)c2)c1)Nc1c(F)cccc1Cl [Compound 25, 4-(4-(3-(2-chloro-6-fluorophenyl)ureido)-1H-pyrazol-1-yl)-N-(oxetan-3-yl)thiophene-2-carboxamide]
remaining activity at 5 µM [1]: 108% | remaining activity at 5 µM [2]: 76.6% | remaining activity at 5 µM [3]: 86.8% | remaining activity at 5 µM [4]: 96.1% | remaining activity at 5 µM [5]: 94% | remaining activity at 5 µM [6]: 93.3%

Cc1sc(C(=O)NC2COC2)cc1-n1cc(NC(=O)Nc2c(F)cccc2Cl)cn1 [Compound 27, 4-(4-(3-(2-chloro-6-fluorophenyl)ureido)-1H-pyrazol-1-yl)-5-methyl-N-(oxetan-3-yl)thiophene-2-carboxamide]
remaining activity at 10 µM ([1]; 10 uM): 103% | remaining activity at 10 µM ([2]; 10 uM): 105% | remaining activity at 10 µM ([3]; 10 uM): 103% | remaining activity at 10 µM ([4]; 10 uM): 112% | remaining activity at 10 µM ([5]; 10 uM): 113% | remaining activity at 10 µM ([6]; 10 uM): 88.9%
